Patent US20120108665A1, “METHODS AND COMPOSITIONS FOR TREATING OPHTHALMIC CONDITIONS” (REVISION THERAPEUTICS, INC., priority 2009, published 2012)

Experiments:
VLDLR-/- knockout mice = assay: Retinal vascular leakage in VLDLR-/- knockout mice (retinal neovascularization model); assay type: in vivo, mouse; settings: 0.1% HPR (w/w) chow 8 weeks, retinal flat mounts after FITC-dextran perfusion (FIG. 8)
From the text: (§1) We set out to directly test the angiogenic properties of HPR in three different models of ocular angiogenesis. In the first, we induced angiogenesis in vitro by exposing primary human retinal microvascular endothelial cells to growth factors in the tube formation assay. Second, we utilized slow release pellets containing growth factor to induce angiogenesis in the corneal micropocket assay. Next, we looked at the effect of HPR treatment on angiogenesis in a transgenic animal model of early-onset retinal neovascularization, the very-low-density lipoprotein receptor (VLDLR) knockout mouse (vldlr−/−).
VLDLR^−/− mice were fed either control or 0.1% HPR (w/w)-supplemented chow ad libitum for 8 weeks. The extent of retinal leakage was then assessed in retinal flat mounts after FITC-dextran perfusion.

ganglion cell layer = assay: Retinal histology (toludine blue staining) of ganglion cell layer in Ins2Akita/+ mice; assay type: in vivo, mouse; settings: HPR diet 0.1% w/w
Description: (§2) Ins2Akita littermates (aged 2-5 months) were divided into two groups. One group received a specialized rodent diet containing HPR (0.1%, w/w). The second group received a rodent chow which was not supplemented with HPR. Mice ingested these diets ad libitum for 3 months (except where indicated). Serum retinol and glucose levels were regularly monitored throughout the treatment period. At the end of the treatment period, the mice were euthanized and eyecups were prepared for biochemical and immunohistochemical analyses.
(§3) Panels A and D are from Ins2Akita/+ mice fed the control diet. Panels B and E are from Ins2/Akita/+ mice fed the HPR-supplemented diet. Panels C and E are from age-matched wild-type mice. Arrows in panels A and D show disruption of the GCL and RAGE immunoreactivity.

VEGF = VEGF expression in retina of Ins2Akita/+ mice; assay type: in vivo, mouse; settings: HPR diet 0.1% w/w, 3 months (FIG. 5)
Description: as §2

wild type Balb/c mice = assay: In vivo corneal micropocket assay (bFGF pellets); set-up: species or system mouse; settings: 0.1% (w/w) HPR chow 8 weeks, bFGF ~80 ng/pellet, assessed 5 days later, FITC-dextran (FIG. 7)
From the text: as §1
At the end of this period, standardized slow release pellets containing bFGF (˜80 ng/pellet) were surgically inserted into the normally avascular corneas of the mice in the study. Blank pellets were implanted in the left eye. Vessel formation was assessed 5 days later when the mice were perfused with FITC-dextran and the eyes were enucleated and photographed. FIG. 7: Bright field (A-F) and fluorescence (G-L) images showing vessel growth (arrows) and the approximate location of the pellets (ovals).

[1] = system: advanced glycation end products (AGEs); assay: AGE immunoreactivity in retina tissue sections of Ins2Akita/+ mice; assay type: in vivo, mouse; settings: HPR diet 0.1% w/w, 3 months (FIG. 3)
Description: as §2

[2] = system: primary human retinal microvascular endothelial cells; assay: In vitro capillary tube formation assay; assay type: cell-based; settings: HPR 10 mM; VEGF 10 ng/ml pretreatment; cells on Cultrex BME in 0.1% FBS (FIG. 6)
From the text: as §1
In parallel experiments, cells were pretreated with VEGF (10 ng/ml) and HPR ([…]) respectively. The cells were then plated in 0.1% FBS or 0.1% FBS-[…] HPR.

RAGE = RAGE immunoreactivity in retina tissue sections of Ins2Akita/+ mice; assay type: in vivo, mouse; settings: HPR diet 0.1% w/w, 3 months (FIG. 2)
Description: as §2, §3

phosphorylated p38 MAPK = assay: Phosphorylated p38 MAPK immunoreactivity in RPE of Ins2Akita/+ mice; assay type: in vivo, mouse; settings: HPR diet 0.1% w/w, 3 months (FIG. 4)
Description: as §2
Tissue sections from these mice were probed for phosphorylated p38 MAPK, a mediator of apoptotic cell death.

serum RBP-retinol = assay: Serum retinol monitoring in Ins2Akita/+ diabetic mice fed HPR-supplemented diet; assay type: in vivo, mouse; settings: diet containing HPR 0.1% w/w ad libitum, retinol at day 30 (FIG. 1A)
Description: as §2
(§4) Serum levels of retinol at day 30 (panel A) and glucose at 7-day intervals (panel B) are shown. The dashed line in panel B indicates mean glucose levels in wild-type mice.

Ins2Akita/+ mice = assay: Serum glucose (hyperglycemia) monitoring in Ins2Akita/+ diabetic mice fed HPR-supplemented diet; assay type: in vivo, mouse; settings: diet containing HPR 0.1% w/w ad libitum, glucose at 7-day intervals (FIG. 1B)
Description: as §2, §4

SMILES: CC1=C(/C=C/C(C)=C/C=C/C(C)=C/C(=O)Nc2ccc(O)cc2)C(C)(C)CCC1 [HPR, N-(4-hydroxyphenyl)retinamide]
- extent of retinal vascular leakage (VLDLR-/- knockout mice): significant reduction
- preservation of ganglion cell layer and inner nuclear layer (ganglion cell layer; 3 months (FIG. 5)): remarkable preservation
- integrity of the ganglion cell layer (GCL) (ganglion cell layer; 3 months, toludine blue staining (FIG. 2)): well preserved
- VEGF expression in all retina sublayers (VEGF): dramatically reduced
- bFGF-induced corneal vessel growth (angiogenic response) (wild type Balb/c mice): striking reduction
- AGE immunoreactivity in the retina [1]: significantly reduced
- tube formation [2]: reduced
- RAGE immunoreactivity in the GCL (RAGE): very little
- p38 MAPK immunoreactivity in the RPE (phosphorylated p38 MAPK): barely detectable
- serum RBP-retinol (serum RBP-retinol): significantly reduces
- effect on hyperglycemia (serum glucose) (Ins2Akita/+ mice): has no effect
